Values joined by “and” are separate entries in the source; they are usually repeats but may differ in a detail not shown here. Identical values can stand only once.

In data set [1] the test system is hairy root cultures of peanut, line 2. The protocol: (§1) Elicitation of hairy root cultures. […] All elicitors were dissolved in water and filter sterilized, except for chitosan which was dissolved in 1 M acetic acid. Following elicitation, all media was collected and frozen at −20° C. All root tissue was collected, fresh weight recorded and roots then rapidly frozen in liquid nitrogen prior to storage at −80° C. Controls included hairy root cultures incubated 24 hours with equivalent volumes of water or acetic acid as well as non-elicited media samples collected from the 12-day hairy root cultures prior to initiating the elicitation procedure. […] Media and root tissue were collected, processed and stored as outlined above.
(§2) Extraction of resveratrol from culture medium. Media samples were thawed (50 ml) and partitioned with 30 ml ethyl acetate in a separatory funnel. The organic phase was recovered and dried to completeness under nitrogen stream using a RapidVap N2 evaporation system (Labconco) at 40° C. and 40% rotor speed. These dried samples were resuspended in 50 μl of ethyl acetate for further analysis.
Quantitative analysis of resveratrol and pterostilbene by GC-MS. Dried medium or root tissue extracts (0.1 mg) were derivatized with 500 μL of a mixture of bis (trimethylsilyl)trifluoroacetamide:dimethyl formamide (1:1), heated at 70° C. for 40 min. After cooling to room temperature, samples were analyzed by gas chromatography/mass spectrometry (GC-MS) on a JEOL GCMate II system (JEOL USA, Inc., USA). […] The GC capillary column used was DB-5 (0.25 mm i.d., 0.25 […], 30 m length; Agilent Technologies, USA). The carrier gas was ultra high purity helium (nexAir, USA), 1 mL/min flow rate. The inlet (splitless), GC interface, and ion chamber temperatures were 250° C., 250° C., and 230° C., respectively. The injection volume was 2 μL.
Quantitative analysis of resveratrol and pterostilbene by GC-MS. […] Cis- and trans-resveratrol were monitored for m/z 444 (and 429, 207, 147 as qualifier ions). Cis- and trans-pterostilbene were monitored for m/z 328 (and 313, 296, 156 as qualifier ions). Quantitation was performed using external standards of a commercial sample of trans-resveratrol (Sigma) and a synthetic sample of trans-pterostilbene (synthesized from methylation of resveratrol). The cis isomers were obtained by UV-irradiation (λ 306 nm) of an ethanolic solution the trans isomers (1 mg/mL) for 24 hours.
Laboratory recovery of stilbenes. […] Therefore we have calculated resveratrol recoveries based on the dry weight (DW) of the ethyl acetate extract of the culture media.

Data set [2] deals with hairy roots of muscadine grape. The note with it: 10.2 mM sodium acetate, 24 hours, medium extract. The protocol: PCR analyses of hairy roots of muscadine grape (Vitis rotundifolia) cvs. Roots were analyzed for the presence of rol C and aux 2 genes. Hairy roots were cultured in B5 medium. […] Analysis was done under UV light (365 nm).
Data set [3] has as its system hairy root cultures of N. benthamiana.
Description: Seeds of Nicotiana benthamiana were surface sterilized and germinated on MS semi-solid medium. Axillary nodes were harvested from the axenic seedlings and used to establish plantlets. The latter were then micropropagated in MS medium and leaves from these plantlets were used as explants for Agrobacterium rhizogenes inoculations. Leaves were harvested from 2-3 week old plantlets and placed on B5 medium. The leaves were inoculated in the midrib with A. rhizogenes ATCC 15834. Two to 3 weeks after inoculation hairy roots initiated at the inoculation site. The roots were then transferred to B5 medium with cefotaxime to eliminate agrobacteria. After several subcultures in this medium, the roots were transferred to antibiotic-free B5 medium. Confirmation of transformation with A. rhizogenes was done by PCR. […]
To test for elicitation of stilbenes (pinosylvin, resveratrol and their derivatives), hairy root cultures of N. benthamiana lines 3NB, 4NB, 5NB and 6NB were grown for either 2 or 3 weeks as described above. […] Stilbenes were detected with a coupled diode away and fluorescence (excitation 330 nm; emission 374 nm) detector.
Further analyses were conducted by reverse phase HPLC. […] Stilbenes were detected with coupled diode array and fluorescence (excitation 330 nm; emission 374 nm) detectors. […] These compounds were further analyzed by HPLC-ESI-mass spectrometry.
In data set [4] the test system is peanut hairy roots derived from the Hull cultivar. As to conditions: 10.2 mM sodium acetate, 24 hours, medium extract. Here is the method:
Using the materials and methods outlined above, resveratrol and resveratrol derivatives were elicited in the peanut hairy roots derived from the Hull cultivar. […] Control roots were not elicited. Elicited hairy root of peanut cv. Andru II (line pRYG-J) and cv. Hull s were cultured in B5 medium. […] Analysis was done under UV light (254 and 365 nm).

Data set [5] relates to hairy root cultures of peanut cv. Andru II. Put plainly: Elicitation of peanut hairy root cultures, TLC/HPTLC of ethyl acetate extracts of the medium. Type of data set: cell-based, Arachis hypogaea. The note with it: for fluorescent compounds induced in culture medium (TLC, UV 365 nm): all cv. Andru II hairy root lines tested, 12-day cultures, 600 μM copper sulfate or 10.2 mM sodium acetate; for fluorescent compounds induced in culture medium (TLC, UV 365 nm) / fluorescent products induced in culture medium (TLC): 24 hours; for fluorescent products induced in culture medium (TLC): line 2, 12-day culture, sodium acetate 10.2 mM, chitosan 10 mg/L, copper sulfate 600 μM, laminarin 1 mg/ml, cellulase 1 or 10 μg/ml; for color change of the root tissue and medium: lines 2, 3, 5 and 6 of cv. Andru II, elicitors applied 24 hours. Here is the method:
Establishment of hairy root cultures. Seeds of peanuts (Arachis hypogaea) cvs. Andru II and Hull (kindly provided by Dr. Daniel Gorbet, University of Florida) were surface sterilized as follows. Seeds were presoaked for 2 minutes in sterile water containing 0.003% Ivory™ detergent; immersed for 15 minutes in sterilization solution (50% Clorox™, 0.003% Ivory™ detergent) and rinsed in sterile water. To minimize Chlorox™ damage to the embryo, the test was aseptically removed and seeds were further rinsed in two changes of sterile water over a 15 minute period. Disinfected seeds were placed individually on plates containing B5 medium to allow emergence of the radicle and to screen for viable healthy seedlings. Germinated seedlings were transferred to Magenta™ boxes containing B5 medium and allowed to grow in continuous light at 28° C. for 15 to 21 days. Explants used for hairy root production were harvested following expansion of two true leaves.
Cotyledon, hypocotyl, leaf blade, stem and petiole explants were evaluated. Whole, intact plantlets were also tested. […] Intact seedlings and isolated explants were then evaluated for response to Agrobacterium infection. Three strains of Agrobacterium were tested: A. rhizogenes ATCC 15834, A. rhizogenes R1000 and A. tumefaciens EHA105 containing pRYG (containing rolA, rolB and rolC genes, Komarnytsky et al., 2004) plasmid. The latter plasmid was kindly provided by Dr. Ilya Raskin (Rutgers University, New Jersey) and mobilized into A. tumefaciens by freeze-thaw method (Holsters et al., 1978). Intact seedlings were inoculated with agrobacteria at the stem, petiole, or cotyledonary node. All other isolated explants were inoculated via epidermal incisions as described before (Medina-Bolivar et al., 2003; Medina-Bolivar and Cramer, 2004). Inoculated intact seedlings and explants were maintained in B5 medium plates under constant light at 28° C. Hairy roots developed at the inoculation site were harvested and transferred to B5 medium plates containing 600 mg/l cefotaxime, and maintained at 28° C. under continuous darkness. Roots were subcultured twice in this medium prior to transfer to antibiotic-free medium. Liquid hairy root cultures were established by inoculating ten 1-cm root tips into 250 ml flasks containing 50 ml of B5 medium. Roots were subcultured every 2 weeks and maintained on an orbital shaker at 90 rpm, 28° C. and continuous darkness.
as §1, §2
Qualitative TLC analysis. Aliquots of the extracts and pure, authentic standards of trans-resveratrol (Sigma Co, St. Louis, Mo.), polydatin—same chemical as piceid—(ChromaDex, Santa Ana, Calif.), pterostilbene (Sigma) and piceatannol (Sigma) were spotted on a 20×20 cm silica gel 60 CF254 TLC plates (Merck) or a 10×10 silica gel 60 CF254 HPTLC plates (Merck).

Data set [6] can be described thus: Solubility of resveratrol in organic solvents. The class given is physicochemical. The source says:
Qualitative analyses of elicited peanut hairy root cultures. In an effort to rapidly assess the various hairy root lines for resveratrol production and secretion into the culture medium, we adapted a thin layer chromatographic method (TLC) that leverages the fluorescent nature of resveratrol at defined excitation wavelengths (Nepote et al., 2004). In a preliminary experiment, the culture medium was lyophilized to completeness and the dried medium was resuspended in methanol. This extract produced a very viscous solution which was difficult to resolve by TLC. In addition, the high content of carbohydrates in this sample appeared to bind the phenolic compounds (i.e. resveratrol). In an effort to overcome these issues, we optimized the purification of resveratrol in the culture medium by determining the solubility of resveratrol in various organic solvents. […] Initial analyses of the ethyl acetate extracts of hairy root media were compared by TLC to pure authentic references standards of trans-resveratrol and piceid. […] Andru II hairy root lines tested. The strongest fluorescent chemical was detected in the medium of sodium acetate-elicited hairy roots and generated an Rf of 0.83 corresponding to that of authentic trans-resveratrol. […]

Setting [7] is: line 2, 15-day culture, 48 hours after elicitation.

`CC(=O)[O-].[Na+]` [sodium acetate]: in data set [1] (culture medium extracts), the “increase of resveratrol above non-elicited culture extracts” value is roughly 60 fold. In data set [1] (elicited cultures), the “cis-resveratrol levels in elicited cultures, root tissue (average)” value stood at 10 ng/mg root tissue extract and the “trans-resveratrol remaining in the root tissue” value was 0.2-1.1 μg/mg extract DW. The “trans-Resveratrol, Medium” value in data set [1] (elicited cultures, ethyl acetate extract of medium, mean of two determinations) is 97992 ng per mg extract and 85282 ng per mg extract and 50339 ng per mg extract. Moreover, the “cis-Resveratrol, Root tissue” value in data set [1] (elicited cultures, extract of root tissue, mean of two determinations) stood at 10 ng per mg extract. In addition, the “production rate of trans-resveratrol per gram DW of root tissue” value in data set [1] (estimating 6 mg medium ethyl acetate extract per gram root tissue DW) was 300 to 588 µg. Further, the “share of total trans-resveratrol secreted into the culture medium” value in data set [1] (sodium acetate elicitation) is “approximately 99%”. In addition, the “elicitation of resveratrol and derivatives (HPTLC)” value in data set [2] is given as “achieved”. In data set [3] (24 and 48 hours after elicitation), the “induced compound by reverse phase HPLC” value was “induced production of a major fluorescence compound”. The “production and secretion of stilbene-like fluorescent compounds (HPTLC)” value in data set [3] (lines 3NB, 4NB, 5NB, 6NB, 10.2 mM sodium acetate, 24 or 48 hours) is “induced production and secretion of compounds with fluorescent characteristics of stilbene compounds”. Further, the “production of resveratrol and derivatives (HPTLC)” value in data set [4] was “induced the production of resveratrol and derivatives”. In data set [5], the “fluorescent compounds induced in culture medium (TLC, UV 365 nm)” value was “induced production of blue fluorescent compounds”; the “fluorescent products induced in culture medium (TLC)” value (shortened to “fluorescent products induced”) is “induced two products”; the “color change of the root tissue and medium” value is reported as “did not affect the color of the roots”. Besides, in data set [5] (setting [7]), the “presence of resveratrol in culture medium, time course” value is given as “decreased” and the “pterostilbene levels in culture medium, time course” value is “increased”. In data set [5] (line 2, 15-day culture, 72 hours post elicitation), the “trans-resveratrol and pterostilbene levels in culture medium, time course” value is on record as “decreased”. For the same compound, the “sodium acetate concentration with the most effective response (dose response, HPTLC)” value in data set [5] (line 2, 24 hours, 0 to 51 mM tested) is on record as “about 10 mM”.

On to `Oc1ccc(/C=C/c2cc(O)cc(O)c2)cc1` [resveratrol, trans-3,4′,5-trihydroxystilbene], for which the “solubility of resveratrol in ethyl acetate” value in data set [6] was “good solubility”.

For cellulase, the “fluorescent products induced” value in data set [5] is given as “no fluorescent chemicals were detected”.

laminarin: the “fluorescent products induced” value in data set [5] is reported as “induced production of a blue fluorescent chemical with an Rf 0.78”.

Take chitosan: the “fluorescent products induced” value in data set [5] is “induced the two products as observed for sodium acetate elicitation”.

For `O=S(=O)([O-])[O-].[Cu+2]` [copper sulfate], in data set [5], the “fluorescent compounds induced in culture medium (TLC, UV 365 nm)” value was “induced production of blue fluorescent compounds”; the “fluorescent products induced” value is on record as “induced a fluorescent chemical of Rf 0.73”; the “color change of the root tissue and medium” value was “induced the browning on the tissue and of the medium”.

Source of the values: patent US7666677B2, “Production of stilbenes in plant hairy root cultures” (priority 2006, dated 2010).
